Results from ChEMBL document CHEMBL4673239, “Discovery of Tyrosine Kinase 2 (TYK2) Inhibitor (PF-06826647) for the Treatment of Autoimmune Diseases” (J Med Chem, 2020).
Converted amounts (≈) assume the structure as drawn. The source made the active and inactive calls. The calls are words filed in the database; no cut-off is given here.

What was measured:
[1] = Apparent permeability in MDCK-II cells; format: ADME, cell-based, Canis lupus familiaris; details: dog
[2] = Clearance in human liver microsomes assessed per mg protein; format: ADME, Microsome; details: read-out: CLH
[3] = Fraction unbound in human plasma; format: ADME, cell-free
[4] = Dissociation constant, basic pKa of compound; format: physicochemical
[5] = Thermodynamic solubility of the compound at pH 7.4 using crystalline form of sample; format: physicochemical; details: read-out: Therm_solubility
[6] = Clearance in Sprague-Dawley rat at 1 mg/kg, iv; format: ADME, organism-based; details: in vivo
[7] = Volume of distribution at steady state in Sprague-Dawley rat at 1 mg/kg, iv; format: ADME, organism-based; details: in vivo, read-out: Vdss
[8] = AUC infinity in Sprague-Dawley rat at 1 mg/kg, iv; format: ADME, organism-based; design: time infinity, route intravenous, dose 1 mg/kg; details: in vivo
[9] = Oral bioavailability in Sprague-Dawley rat at 3 mg/kg using crystalline form of sample; format: ADME, organism-based; details: in vivo
[10] = Oral bioavailability in Sprague-Dawley rat at 30 mg/kg using crystalline form of sample; format: ADME, organism-based; details: in vivo
[11] = Oral bioavailability in Sprague-Dawley rat at 3 mg/kg using SDD formulation; format: ADME, organism-based; details: in vivo
[12] = Oral bioavailability in Sprague-Dawley rat at 30 mg/kg using SDD formulation; format: ADME, organism-based; details: in vivo
[13] = Cmax in Sprague-Dawley rat at 3 mg/kg, po using SDD formulation; format: ADME, organism-based; design: route oral, dose 3 mg/kg; details: in vivo
[14] = Cmax in Sprague-Dawley rat at 30 mg/kg, po using SDD formulation; format: ADME, organism-based; design: route oral, dose 30 mg/kg; details: in vivo
[15] = AUC infinity in Sprague-Dawley rat at 3 mg/kg, po using SDD formulation; format: ADME, organism-based; design: time infinity, route oral, dose 3 mg/kg; details: in vivo
[16] = AUC infinity in Sprague-Dawley rat at 30 mg/kg, po using SDD formulation; format: ADME, organism-based; design: time infinity, route oral, dose 30 mg/kg; details: in vivo
[17] = Protein binding in rat plasma; format: ADME, cell-free; details: read-out: PPB (converted)
[18] = Protein binding in human plasma; format: ADME, cell-free
[19] = Renal excretion in rat; format: ADME, Kidney; details: urine, read-out: Drug excretion
[20] = Bile excretion in rat; format: ADME; details: read-out: Drug excretion
[21] = Unbound drug level in imiquimod-induced mouse model of skin inflammation at 1 mg/kg, po qd; format: ADME, organism-based; details: in vivo
[22] = Unbound drug level in imiquimod-induced mouse model of skin inflammation at 3 mg/kg, po qd; format: ADME, organism-based; details: in vivo
[23] = Unbound drug level in imiquimod-induced mouse model of skin inflammation at 10 mg/kg, po qd; format: ADME, organism-based; details: in vivo
[24] = Unbound drug level in imiquimod-induced mouse model of skin inflammation at 30 mg/kg, po qd; format: ADME, organism-based; details: in vivo
Mus musculus [25] = assay: Antiinflammatory activity in imiquimod-induced mouse model of skin inflammation assessed as reduction in IL12 stimulation at 1 mg/kg, po qd; format: functional; design: scale not given: the % may be the effect or the level left
Mus musculus [26] = assay: Antiinflammatory activity in imiquimod-induced mouse model of skin inflammation assessed as reduction in IL12 stimulation at 3 mg/kg, po qd; format: functional; design: scale not given: the % may be the effect or the level left
Mus musculus [27] = assay: Antiinflammatory activity in imiquimod-induced mouse model of skin inflammation assessed as reduction in IL12 stimulation at 10 mg/kg, po qd; format: functional; design: scale not given: the % may be the effect or the level left
Mus musculus [28] = assay: Antiinflammatory activity in imiquimod-induced mouse model of skin inflammation assessed as reduction in IL12 stimulation at 30 mg/kg, po qd; format: functional; design: scale not given: the % may be the effect or the level left
Mus musculus [29] = assay: Antiinflammatory activity in imiquimod-induced mouse model of skin inflammation assessed as reduction in ear swelling at 1 mg/kg, po qd; format: functional, organism-based
Mus musculus [30] = assay: Antiinflammatory activity in imiquimod-induced mouse model of skin inflammation assessed as reduction in ear swelling at 30 mg/kg, po qd relative to control; format: functional; design: scale not given: the % may be the effect or the level left
Mus musculus [31] = assay: Antiinflammatory activity in imiquimod-induced mouse model of skin inflammation assessed as reduction in ear swelling at 10 mg/kg, po qd relative to control; format: functional; design: scale not given: the % may be the effect or the level left
Mus musculus [32] = assay: Antiinflammatory activity in imiquimod-induced mouse model of skin inflammation assessed as reduction in ear swelling at 3 mg/kg, po qd relative to control; format: functional; design: scale not given: the % may be the effect or the level left
physchem = details: octanol/water phosphate buffer, pH 7.4
Description: Octanol/water phosphate buffer partition coefficient, log D of compound at pH 7.4 by shake-flask method

Papp [1]: 17 ×10⁻⁶ cm/s
microsomal CLint [2]: < 8 µL/min/mg
Fu [3]: 0.38
pKa [4]: < 1.7
solubility thermodynamic [5]: 0.8 µM (≈ 0.307 µg/mL)
clearance [6]: 12 mL/min/kg
Vd [7]: 1.1 L/kg
AUC(0-inf) [8]: 1380 ng·h/mL
bioavailability [9]: 15%
bioavailability [10]: 8%
bioavailability [11]: 58%
bioavailability [12]: 63%
Cmax [13]: 369 ng/mL
Cmax [14]: 2780 ng/mL
AUC(0-inf) [15]: 2390 ng·h/mL
AUC(0-inf) [16]: 25900 ng·h/mL
fraction unbound [17]: 0.82
PPB [18]: 38%
dose excreted [19]: 1.3%
dose excreted [20]: 0.9%
Drug uptake(free) [21]: 14.5 nM
Drug uptake(free) [22]: 45.7 nM
Drug uptake(free) [23]: 225 nM
Drug uptake(free) [24]: 668 nM
logD (physchem): 1.7
SMILES: Cn1cc(-c2cn3nccc3c(-c3cnn([C@]4(CC#N)C[C@@H](C#N)C4)c3)n2)cn1 [ROPSACITINIB]
Activity (Mus musculus [25]): 51%
Activity (Mus musculus [26]): 77%
Activity (Mus musculus [27]): 94%
Activity (Mus musculus [28]): 98%
Activity (Mus musculus [29]): inactive
Activity (Mus musculus [30]): 46.2%
Activity (Mus musculus [31]): 34%
Activity (Mus musculus [32]): 31.3%
